Measurements taken from article PMC9308172 (Journal of medicinal chemistry, 2017).

System: A/WSN/33-M2-N31S
Format: cell-based, Influenza virus A/WSN/33 (H1N1)
Conditions: read-out: IC50 A/WSN/33-M2-N31S

| Compound | IC50 [µM] |
| --- | --- |
| C1CNC2(C1)C1CC3CC(C1)CC2C3 (stereo not shown) [Compound 6] | 0.34 ± 0.08 |
| CN1CCCC12C1CC3CC(C1)CC2C3 (stereo not shown) [Compound 7] | 0.9 ± 0.29 |
| CC12CC3CC(CC(C3)C13CCCN3)C2 (stereo not shown) [Compound 8, 1′-Methylspiro[pyrrolidine-2,2′-adamantane]] | 6.12 ± 2.59 |
| CCC1(N)C2CC3CC(C2)CC1C3 (stereo not shown) [Compound 4] | 0.34 ± 0.26 |
| NC1C2CC3CC(C2)CC1C3 (stereo not shown) [Compound 2] | 0.42 ± 0.46 |
| NC1(C23CC4CC(CC(C4)C2)C3)CCCC1 [Compound 9] | 4.34 ± 2.94 |
| CCCC1(N)C2CC3CC(C2)CC1C3 (stereo not shown) [Compound 5] | 0.34 ± 0.1 |
| CC1(N)C2CC3CC(C2)CC1C3 (stereo not shown) [Compound 3] | 0.33 ± 0.1 |
| NC12CC3CC(CC(C3)C1)C2 [Compound 1, Amantadine, reference compound] | 0.27 ± 0.16 |

System: A/California/07/2009 (H1N1) M2: N31
Conditions: cited from earlier work

| Compound | blockage of full-length S31N M2 protein in electrophysiology (EP) studies |
| --- | --- |
| CCCC1(N)C2CC3CC(C2)CC1C3 (stereo not shown) [Compound 5] | no blockage |
